In publication PMC8351955, “Targeting Mycobacterium tuberculosis response to environmental cues for the development of effective antitubercular drugs” (PLoS Biology, 2021):
Several values for one entry are separate records, joined by “and”; a condition that tells them apart may be missing. Equal values may be shown once. Read-outs that look alike come from different tables or passages of the source.

What was measured:
Mtb [1] = experiment: Mtb growth assay in standard 7H9 medium (OD600); conditions: Fig. 2F
Description: (§1) Bacterial growth was tracked by measuring OD600 every 3 days for 12 days. […] Bacterial growth was tracked by measurement of OD600 every 3 days over 12 days.

[2] = test system: CDC1551(rv2390c′::GFP) reporter Mtb strain; conditions: for Normalized % induction: Fig. 2C, DMSO = 100; for Ability to increase rv2390c′::GFP reporter signal in high [Cl−]: pH 7
J774 cells = experiment: Intracellular drug accumulation assay in J774 cells (LC-MS); conditions: for nmol/106 cells: Fig. 3F
Mtb [3] = experiment: Mtb growth assay in cholesterol medium (OD600); conditions: for Inhibition of Mtb growth in cholesterol media: 10 μM, OD600 over 12 days; for OD600: Fig. 2G
Description: as §1

[4] = test system: WT Mtb (Erdman) in primary murine BMDMs; experiment: Primary murine bone marrow-derived macrophage infection, CFU; type: cell-based, Mycobacterium tuberculosis; conditions: 10 μM, 8-day infection time course, vs DMSO
Method: C57BL/6J wild-type mice (Jackson Laboratories) were used for extraction of BMDMs. Cells were harvested and expanded in DMEM containing 10% FBS, 15% L-cell conditioned media, 2 mM L-glutamine, 1 mM sodium pyruvate, and penicillin/streptomycin as needed in a 37°C incubator in a 5% CO2 atmosphere. […] Macrophages were lysed with water containing 0.01% sodium dodecyl sulfate and a dilution series of the samples plated on 7H10 agar for CFU determination.

Mtb-infected J774 cells = conditions: Fig. 3F
[5] = test system: Mtb growth in J774 macrophage-like cells; experiment: J774 infection in 96-well plates, mKO fluorescence 6 days post-infection; type: cell-based, Mycobacterium tuberculosis; conditions: for Inhibition of Mtb growth in J774 cells: 10 μM; for % Growth: Fig. 2D, DMSO = 100
Method: For J774 infection in 96-well plates, 1.8 × 10^5 J774 cells were seeded per well in 180 μl of J774 infection media 1 day prior to infection. On the day of the assay, log-phase Mtb constitutively expressing mKO were pelleted and resuspended in 1 ml basal uptake buffer, passed 6× through a tuberculin syringe with a 25 G × 5/8″ needle, then resuspended in J774 infection media to a final OD600 = 0.2. Media was removed from 96-well plate containing the J774 cells, with 140 μl of fresh J774 infection media added back to each well. A volume of 40 μl of the Mtb suspension at OD600 = 0.2 was added to each well, followed by addition of appropriate concentration of compound or DMSO in a 20-μl final volume in J774 infection media (compound final concentration 10 μM, rifampicin final concentration 5 μM, DMSO final concentration 0.1%/well). Bacterial mKO fluorescence was read immediately after infection using a Biotek Synergy Neo2 microplate reader (bottom read monochromator, excitation 543/10 nm, emission 565/10 nm), and again 6 days post-infection. Plates were kept in humidified ziplock bags in a 37°C, 5% CO2 incubator. mKO fluorescence in DMSO-treated control samples were defined as 100% growth, and fluorescence observed in treatment conditions calculated as a percentage from that set value.

| Structure (SMILES) | OD600 (Mtb [1]; day 3, average) | OD600 (Mtb [1]; day 3, individual replicates) | OD600 (Mtb [1]; day 6, average) | OD600 (Mtb [1]; day 6, individual replicates) | OD600 (Mtb [1]; day 9, average) | OD600 (Mtb [1]; day 9, individual replicates) | OD600 (Mtb [1]; day 12, average) | OD600 (Mtb [1]; day 12, individual replicates) | Normalized % induction ([2]; average of 3 replicates) | Normalized % induction ([2]; individual replicates) | Ability to increase rv2390c′::GFP reporter signal in high [Cl−] [2] | Inhibition of Mtb growth in cholesterol media (Mtb [3]) | OD600 (Mtb [3]; day 3, average) | OD600 (Mtb [3]; day 3, individual replicates) | OD600 (Mtb [3]; day 6, average) | OD600 (Mtb [3]; day 6, individual replicates) | OD600 (Mtb [3]; day 9, average) | OD600 (Mtb [3]; day 9, individual replicates) | % Growth ([5]; average of 4 replicates) | % Growth ([5]; individual replicates) | further results |
| --- | --- | --- | --- | --- | --- | --- | --- | --- | --- | --- | --- | --- | --- | --- | --- | --- | --- | --- | --- | --- | --- |
| c1ccc2oc(N3CCN(Cc4cncnc4)CC3)nc2c1 [JSF-4297, 2-(4-(pyrimidin-5-ylmethyl)piperazin-1-yl)benzo[d]oxazole] | 0.1933 | 0.18 (2×) and 0.22 | 0.4 | 0.4 and 0.42 and 0.38 | 0.5467 | 0.56 (2×) and 0.52 | 0.7 | 0.7 and 0.72 and 0.68 | 100.379% | 88.9158% and 107.146% and 105.074% | lost the ability | no longer inhibited Mtb growth | 0.09333 | 0.1 (2×) and 0.08 | 0.3133 | 0.32 (2×) and 0.3 | 0.4533 | 0.46 (2×) and 0.44 | 108.514% | 102.242% and 116.384% and 110.602% and 104.828% | Intracellular accumulation in J774 cells (J774 cells; 24 hours): no detectable accumulation; nmol/106 cells (J774 cells; Experiment 1 - J774, average): 0 nmol/106 cells; nmol/106 cells (J774 cells; Experiment 1 - J774, individual replicates): 0 nmol/106 cells; nmol/106 cells (J774 cells; Experiment 2 - J774, average): 0 nmol/106 cells; nmol/106 cells (J774 cells; Experiment 2 - J774, individual replicates): 0 nmol/106 cells; nmol/106 cells (J774 cells; Experiment 3 - J774, average): 0 nmol/106 cells; nmol/106 cells (J774 cells; Experiment 3 - J774, individual replicates): 0 nmol/106 cells; OD600 (Mtb [3]; day 12, average): 0.5; OD600 (Mtb [3]; day 12, individual replicates): 0.48 and 0.5 and 0.52; Effect on bacterial load / Mtb growth in primary murine BMDMs [4]: loss of the ability to inhibit Mtb growth; nmol/106 cells (Mtb-infected J774 cells; Experiment 1 - Mtb-infected J774, average): 0.006771 nmol/106 cells; nmol/106 cells (Mtb-infected J774 cells; Experiment 1 - Mtb-infected J774, individual replicates): 0.007341 nmol/106 cells and 0.006486 nmol/106 cells (2×); nmol/106 cells (Mtb-infected J774 cells; Experiment 2 - Mtb-infected J774, average): 0.007288 nmol/106 cells; nmol/106 cells (Mtb-infected J774 cells; Experiment 3 - Mtb-infected J774, average): 0.039 nmol/106 cells; nmol/106 cells (Mtb-infected J774 cells; Experiment 3 - Mtb-infected J774, individual replicates): 0.03001 nmol/106 cells and 0.048 nmol/106 cells; Inhibition of Mtb growth in J774 cells ([5]; 6 days post-infection): loss of the ability to inhibit Mtb growth |
| CO[C@H]1/C=C/O[C@@]2(C)Oc3c(C)c(O)c4c(O)c(c(/C=N/N5CCN(C)CC5)c(O)c4c3C2=O)NC(=O)/C(C)=C\C=C\[C@H](C)[C@H](O)[C@@H](C)[C@@H](O)[C@@H](C)[C@H](OC(C)=O)[C@@H]1C [Rif, rifampicin, reference compound] |  |  |  |  |  |  |  |  |  |  |  |  |  |  |  |  |  |  | 10.744% | 10.4241% and 10.7119% and 11.5524% and 10.2878% | % growth of Mtb in J774 cells, average ([5]; 5 μM rifampicin, 6 days post-infection, DMSO = 100%, Fig 1H): 8.618% |
| CCSc1ncc(CN2CCN(c3nc4ccccc4s3)CC2)cn1 [JSF-4298, 2-(4-((2-(ethylthio)pyrimidin-5-yl)methyl)piperazin-1-yl)benzo[d]thiazole] | 0.1867 | 0.2 and 0.18 (2×) | 0.38 | 0.36 and 0.38 and 0.4 | 0.5067 | 0.5 (2×) and 0.52 | 0.6467 | 0.64 (2×) and 0.66 | 128.692% | 127.109% and 127.993% and 130.974% | continuing to demonstrate the phenotypes seen with the parental C6 compound | continuing to demonstrate the phenotypes seen with the parental C6 compound | 0.06 | 0.06 | 0.09333 | 0.08 and 0.1 (2×) | 0.1333 | 0.14 (2×) and 0.12 | 72.2652% | 65.6342% and 77.3722% and 76.7437% and 69.3109% | OD600 (Mtb [3]; day 12, average): 0.1533; OD600 (Mtb [3]; day 12, individual replicates): 0.16 (2×) and 0.14; Inhibition of Mtb growth in J774 cells ([5]; 6 days post-infection): continuing to demonstrate the phenotypes seen with the parental C6 compound |
